Reference: patent publication US7550451B2, “Progesterone receptor modulators with increased antigonadotropic activity for female birth control and hormone replacement therapy” (Bayer Schering Pharma AG, priority 2002, dated 2009)

Biological target: T1, Glucocorticoid receptor (Rattus norvegicus, UniProt P06536)
T1 construct: Thymus cytosol of the adrenalectomized rat; from tissue; host or cells: thymus cytosol of adrenalectomized rat
T1 sequence (P06536 1-795): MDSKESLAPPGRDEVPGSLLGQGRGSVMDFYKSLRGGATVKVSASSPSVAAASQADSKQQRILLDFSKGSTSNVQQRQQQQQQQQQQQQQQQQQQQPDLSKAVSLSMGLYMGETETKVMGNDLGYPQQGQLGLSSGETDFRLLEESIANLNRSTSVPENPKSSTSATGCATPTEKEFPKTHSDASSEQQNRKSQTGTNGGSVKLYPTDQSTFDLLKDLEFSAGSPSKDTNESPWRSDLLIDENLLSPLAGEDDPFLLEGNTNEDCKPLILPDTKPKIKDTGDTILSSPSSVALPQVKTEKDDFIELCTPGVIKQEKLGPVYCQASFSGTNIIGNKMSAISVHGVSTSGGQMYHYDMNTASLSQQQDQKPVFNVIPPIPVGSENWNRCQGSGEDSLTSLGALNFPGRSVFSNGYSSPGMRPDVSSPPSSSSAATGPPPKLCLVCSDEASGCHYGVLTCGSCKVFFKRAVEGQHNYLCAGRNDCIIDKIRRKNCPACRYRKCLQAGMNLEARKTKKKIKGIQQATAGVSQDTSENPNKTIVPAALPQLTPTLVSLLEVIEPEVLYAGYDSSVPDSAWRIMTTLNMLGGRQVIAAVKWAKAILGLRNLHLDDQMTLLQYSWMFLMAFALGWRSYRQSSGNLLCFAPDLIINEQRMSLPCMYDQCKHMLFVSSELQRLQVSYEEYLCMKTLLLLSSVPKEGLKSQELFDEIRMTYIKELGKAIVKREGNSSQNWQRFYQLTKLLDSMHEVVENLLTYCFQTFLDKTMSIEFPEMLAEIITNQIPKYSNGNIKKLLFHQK
Experiment: Receptor binding affinity, glucocorticoid receptor (competitive binding, 3H-dexamethasone)
Settings: Dexamethasone = 100%; thymus cytosol of adrenalectomized rat
Description: The receptor binding affinity was determined by competitive binding of a specifically binding ^3H-labeled hormone (tracer) and the compound to be tested on receptors in the cytosol from animal target organs. In this case, receptor saturation and reaction equilibrium were sought.
The tracers and increasing concentrations of the compound to be tested (competitor) were co-incubated with the receptor-containing cytosol fraction at 0-4° C. over 18 hours. After separation of the unbonded tracer with carbon-dextran suspension, the receptor-bonded tracer portion was measured for each concentration, and the IC50 was determined from the concentration sequence. As a quotient of the IC50 values of the reference substance and the compound to be tested (×100%), the relative molar binding affinity (RBA) was calculated (RBA of the reference substance=100%).
Thymus cytosol of the adrenalectomized rat, thymi stored at −30° C.; buffer: TED. Tracer: ^3H-Dexamethasone, 20 nmol; reference substance: dexamethasone.

C[C@]12C[C@H](c3ccc(/C=N/O)cc3)C3=C4CCC(=O)C=C4CC[C@H]3[C@@H]1CC[C@@H]2O [Example 1, 4-(17β-Hydroxy-3-oxoestra-4,9-dien-11β-yl)benzaldehyde-1(E)-oxime]
GR relative molar binding affinity (RBA): 3%

CC1(O)CCC2C3CCC4=CC(=O)CCC4=C3C(c3ccc(C=NO)cc3)CC21C (stereo not drawn) [Example 2, 4-(17β-Hydroxy-17α-methyl-3-oxoestra-4,9-dien-11β-yl)benzaldehyde-1(E)-oxime]
GR relative molar binding affinity (RBA): 12%
